The values that follow come from publication doi:10.1101/2023.03.24.534094v2 (biorxiv, 2023).

Holding throughout (assay): biochemical
Assay [1] concerns the target MELK (Homo sapiens, UniProt Q14680).
For assay [2], the target named is DAPK1 (Homo sapiens, UniProt P53355).
Assay [3] addresses T1, CaMK4 (Homo sapiens, UniProt Q16566).
T1 sequence (Q16566 1-473): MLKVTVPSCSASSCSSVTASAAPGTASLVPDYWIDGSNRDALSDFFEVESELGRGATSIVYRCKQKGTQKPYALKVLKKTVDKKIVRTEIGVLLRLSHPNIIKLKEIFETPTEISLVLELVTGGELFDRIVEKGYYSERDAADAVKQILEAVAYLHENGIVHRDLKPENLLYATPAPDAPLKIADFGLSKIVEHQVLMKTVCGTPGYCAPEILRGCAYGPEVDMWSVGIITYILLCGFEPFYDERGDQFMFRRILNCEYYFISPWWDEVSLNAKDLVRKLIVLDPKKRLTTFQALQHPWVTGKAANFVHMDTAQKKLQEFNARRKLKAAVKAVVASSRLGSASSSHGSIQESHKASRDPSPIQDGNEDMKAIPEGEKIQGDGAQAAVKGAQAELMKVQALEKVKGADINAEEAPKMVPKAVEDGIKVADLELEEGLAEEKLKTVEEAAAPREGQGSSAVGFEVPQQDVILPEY

Assay [4] concerns the target EpHA4 (Homo sapiens, UniProt P54764).
Assay [5] deals with T2, PLK4 (Homo sapiens, UniProt O00444).
T2 sequence (O00444 1-970): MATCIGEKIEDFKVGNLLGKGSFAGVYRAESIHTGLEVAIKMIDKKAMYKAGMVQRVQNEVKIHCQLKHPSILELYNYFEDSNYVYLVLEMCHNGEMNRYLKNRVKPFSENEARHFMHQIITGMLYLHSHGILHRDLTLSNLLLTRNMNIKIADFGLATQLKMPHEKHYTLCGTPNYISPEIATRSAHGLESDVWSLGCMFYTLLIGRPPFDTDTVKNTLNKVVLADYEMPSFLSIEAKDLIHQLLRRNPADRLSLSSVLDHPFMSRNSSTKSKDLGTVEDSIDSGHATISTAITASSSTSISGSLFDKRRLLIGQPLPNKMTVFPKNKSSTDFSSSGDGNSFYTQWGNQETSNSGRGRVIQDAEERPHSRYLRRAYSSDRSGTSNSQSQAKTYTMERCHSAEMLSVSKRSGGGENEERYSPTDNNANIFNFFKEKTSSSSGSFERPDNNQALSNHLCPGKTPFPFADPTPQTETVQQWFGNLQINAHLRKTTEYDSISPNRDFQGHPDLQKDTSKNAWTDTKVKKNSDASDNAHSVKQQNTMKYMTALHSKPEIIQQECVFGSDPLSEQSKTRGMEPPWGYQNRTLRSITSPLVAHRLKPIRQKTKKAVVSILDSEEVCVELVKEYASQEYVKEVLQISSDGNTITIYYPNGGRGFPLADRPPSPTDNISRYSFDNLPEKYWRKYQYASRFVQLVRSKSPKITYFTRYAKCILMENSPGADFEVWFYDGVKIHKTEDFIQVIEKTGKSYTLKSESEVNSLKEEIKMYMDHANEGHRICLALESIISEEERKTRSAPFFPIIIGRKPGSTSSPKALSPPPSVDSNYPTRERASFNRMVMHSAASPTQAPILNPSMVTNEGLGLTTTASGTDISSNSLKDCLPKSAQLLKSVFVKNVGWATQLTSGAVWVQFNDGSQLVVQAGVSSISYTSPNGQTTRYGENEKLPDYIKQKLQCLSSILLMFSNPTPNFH

Assay [6] has as its target T3, AurA (Homo sapiens, UniProt O14965).
T3 sequence (O14965 1-403): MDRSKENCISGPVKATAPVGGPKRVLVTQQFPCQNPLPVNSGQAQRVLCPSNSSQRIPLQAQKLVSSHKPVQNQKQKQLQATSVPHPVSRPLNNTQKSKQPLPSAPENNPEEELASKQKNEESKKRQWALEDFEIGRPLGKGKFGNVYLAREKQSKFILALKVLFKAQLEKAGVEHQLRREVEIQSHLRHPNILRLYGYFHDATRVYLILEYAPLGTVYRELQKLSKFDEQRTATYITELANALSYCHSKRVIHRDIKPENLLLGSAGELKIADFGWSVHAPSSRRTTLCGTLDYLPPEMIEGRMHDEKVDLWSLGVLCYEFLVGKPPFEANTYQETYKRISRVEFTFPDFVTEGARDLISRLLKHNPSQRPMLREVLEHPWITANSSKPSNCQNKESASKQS

Assay [7] concerns the target CLK1 (Homo sapiens, UniProt P49759).

Like-named read-outs stand apart in the source and are kept apart here.

Chain of CLK1 (P49759 whole entry): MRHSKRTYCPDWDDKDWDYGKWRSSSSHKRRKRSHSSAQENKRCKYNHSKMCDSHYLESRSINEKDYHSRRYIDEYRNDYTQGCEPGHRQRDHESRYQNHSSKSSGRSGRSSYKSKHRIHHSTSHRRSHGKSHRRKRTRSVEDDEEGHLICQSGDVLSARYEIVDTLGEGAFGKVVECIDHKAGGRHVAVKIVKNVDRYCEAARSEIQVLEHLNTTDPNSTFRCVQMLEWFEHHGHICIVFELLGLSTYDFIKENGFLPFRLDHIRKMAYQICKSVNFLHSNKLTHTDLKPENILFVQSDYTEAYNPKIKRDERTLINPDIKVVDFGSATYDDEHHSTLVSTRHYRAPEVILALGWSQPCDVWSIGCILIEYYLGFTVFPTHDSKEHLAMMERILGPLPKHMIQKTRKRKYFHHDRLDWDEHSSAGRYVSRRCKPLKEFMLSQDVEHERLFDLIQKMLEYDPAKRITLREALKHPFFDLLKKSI
Chain of MELK (Q14680 whole entry): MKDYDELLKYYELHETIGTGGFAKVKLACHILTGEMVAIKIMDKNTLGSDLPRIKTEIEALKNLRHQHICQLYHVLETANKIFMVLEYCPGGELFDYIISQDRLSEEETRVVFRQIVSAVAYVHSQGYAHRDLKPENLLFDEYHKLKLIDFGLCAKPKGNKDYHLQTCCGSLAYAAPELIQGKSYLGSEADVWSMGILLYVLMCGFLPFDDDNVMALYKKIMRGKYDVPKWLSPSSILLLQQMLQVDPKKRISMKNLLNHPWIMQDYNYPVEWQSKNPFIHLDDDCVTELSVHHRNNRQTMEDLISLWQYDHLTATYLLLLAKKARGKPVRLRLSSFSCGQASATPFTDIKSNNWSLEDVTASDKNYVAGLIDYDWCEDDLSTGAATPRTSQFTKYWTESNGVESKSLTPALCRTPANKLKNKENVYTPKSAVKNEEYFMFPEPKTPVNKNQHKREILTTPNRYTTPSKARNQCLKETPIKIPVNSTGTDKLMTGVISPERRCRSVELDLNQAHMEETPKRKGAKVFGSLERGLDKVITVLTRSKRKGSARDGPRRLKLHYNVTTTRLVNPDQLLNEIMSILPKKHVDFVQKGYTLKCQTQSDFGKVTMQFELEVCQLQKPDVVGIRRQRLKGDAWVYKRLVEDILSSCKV
Chain of EpHA4 (P54764 whole entry): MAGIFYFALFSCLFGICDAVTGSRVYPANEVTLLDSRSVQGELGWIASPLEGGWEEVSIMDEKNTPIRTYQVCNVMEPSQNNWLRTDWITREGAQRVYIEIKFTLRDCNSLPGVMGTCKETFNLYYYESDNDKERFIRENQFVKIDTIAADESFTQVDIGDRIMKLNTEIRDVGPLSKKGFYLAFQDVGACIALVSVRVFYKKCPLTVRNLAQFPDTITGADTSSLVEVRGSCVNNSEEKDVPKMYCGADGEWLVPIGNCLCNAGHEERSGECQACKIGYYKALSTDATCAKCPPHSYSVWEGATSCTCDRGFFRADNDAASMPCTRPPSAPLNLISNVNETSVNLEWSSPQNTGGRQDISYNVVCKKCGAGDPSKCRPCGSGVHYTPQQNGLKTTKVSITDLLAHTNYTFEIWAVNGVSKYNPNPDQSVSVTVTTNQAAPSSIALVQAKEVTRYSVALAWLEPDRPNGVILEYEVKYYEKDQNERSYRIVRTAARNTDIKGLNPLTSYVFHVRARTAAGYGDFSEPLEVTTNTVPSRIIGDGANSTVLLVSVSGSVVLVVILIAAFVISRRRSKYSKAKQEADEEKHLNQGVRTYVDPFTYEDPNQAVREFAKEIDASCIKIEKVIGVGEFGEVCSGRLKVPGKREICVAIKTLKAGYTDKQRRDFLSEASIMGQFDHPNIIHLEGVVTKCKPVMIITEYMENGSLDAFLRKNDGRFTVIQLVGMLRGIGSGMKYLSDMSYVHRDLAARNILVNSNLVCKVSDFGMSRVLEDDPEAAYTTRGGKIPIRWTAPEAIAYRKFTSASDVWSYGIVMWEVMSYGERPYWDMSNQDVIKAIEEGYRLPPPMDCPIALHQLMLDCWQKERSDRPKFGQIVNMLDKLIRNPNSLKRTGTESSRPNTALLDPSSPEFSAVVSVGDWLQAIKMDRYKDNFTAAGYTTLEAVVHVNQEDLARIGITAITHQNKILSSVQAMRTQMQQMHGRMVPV
Chain of DAPK1 (P53355 whole entry): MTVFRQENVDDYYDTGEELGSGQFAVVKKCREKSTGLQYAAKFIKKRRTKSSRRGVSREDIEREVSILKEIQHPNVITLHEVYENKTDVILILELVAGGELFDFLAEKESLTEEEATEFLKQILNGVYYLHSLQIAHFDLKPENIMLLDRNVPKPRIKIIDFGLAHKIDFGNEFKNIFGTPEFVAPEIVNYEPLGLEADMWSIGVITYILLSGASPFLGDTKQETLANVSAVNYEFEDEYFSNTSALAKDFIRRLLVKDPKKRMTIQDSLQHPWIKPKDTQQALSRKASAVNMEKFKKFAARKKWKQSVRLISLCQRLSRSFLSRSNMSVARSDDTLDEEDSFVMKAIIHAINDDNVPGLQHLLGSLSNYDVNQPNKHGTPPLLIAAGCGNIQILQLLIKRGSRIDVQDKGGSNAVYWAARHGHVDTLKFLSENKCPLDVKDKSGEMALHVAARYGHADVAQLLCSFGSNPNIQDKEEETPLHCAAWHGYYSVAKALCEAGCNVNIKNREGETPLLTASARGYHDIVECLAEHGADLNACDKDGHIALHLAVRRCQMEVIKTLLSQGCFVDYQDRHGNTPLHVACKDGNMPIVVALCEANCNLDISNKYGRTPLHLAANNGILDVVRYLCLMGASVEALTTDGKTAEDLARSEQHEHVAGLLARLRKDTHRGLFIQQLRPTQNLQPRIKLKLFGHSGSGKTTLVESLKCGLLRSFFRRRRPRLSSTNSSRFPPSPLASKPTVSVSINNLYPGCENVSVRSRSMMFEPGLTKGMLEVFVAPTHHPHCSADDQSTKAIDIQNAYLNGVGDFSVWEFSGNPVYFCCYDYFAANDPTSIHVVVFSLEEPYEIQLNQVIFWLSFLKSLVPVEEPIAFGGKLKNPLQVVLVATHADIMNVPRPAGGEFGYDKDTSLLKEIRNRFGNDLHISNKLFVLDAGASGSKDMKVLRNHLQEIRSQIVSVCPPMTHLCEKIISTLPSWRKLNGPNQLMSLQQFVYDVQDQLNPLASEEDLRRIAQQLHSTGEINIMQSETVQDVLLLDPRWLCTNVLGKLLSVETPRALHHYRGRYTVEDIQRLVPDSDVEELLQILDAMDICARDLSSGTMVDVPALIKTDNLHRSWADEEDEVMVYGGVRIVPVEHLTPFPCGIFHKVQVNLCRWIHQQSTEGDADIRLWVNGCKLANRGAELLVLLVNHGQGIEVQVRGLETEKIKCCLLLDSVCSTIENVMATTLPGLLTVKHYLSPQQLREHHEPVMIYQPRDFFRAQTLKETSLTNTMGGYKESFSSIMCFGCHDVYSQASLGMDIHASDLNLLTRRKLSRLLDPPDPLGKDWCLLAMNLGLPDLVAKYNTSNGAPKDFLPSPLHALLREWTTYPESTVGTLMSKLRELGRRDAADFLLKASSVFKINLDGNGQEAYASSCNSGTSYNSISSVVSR

For `CNc1ncc2cc(-c3cc(C(F)(F)F)ccc3Cl)c(=O)n(CCCCN)c2n1` [compound 9, 8-(4-Aminobutyl)-6-(2-chloro-5-(trifluoromethyl)phenyl)-2-(methylamino)pyrido[2,3-d]pyrimidin-7(8H)-one], the ΔTm at 10 µM was determined as 1.6 °C in assay [1] (read-out: dTm 9); 0.1 °C in assay [2] (read-out: dTm 9); 0.1 °C in assay [3] (read-out: dTm 9); 2.9 °C in assay [4] (read-out: dTm 9); 0.3 °C in assay [5] (read-out: dTm 9); 1.3 °C in assay [6] (read-out: dTm 9). Further, the ΔTm at 10 µM in assay [7] (read-out: dTm 9) amounted to 0.4 °C.
On to `CNc1ncc2cc(-c3cc(Cl)ccc3Cl)c(=O)n(CCCCN)c2n1` [compound 8, 8-(4-Aminobutyl)-6-(2,5-dichlorophenyl)-2-(methylamino)pyrido[2,3-d]pyrimidin-7(8H)-one], for which the ΔTm at 10 µM came out at 4.6 °C in assay [1] (read-out: dTm 8); 0.1 °C in assay [2] (read-out: dTm 8); 0.1 °C in assay [3] (read-out: dTm 8); 4.7 °C in assay [4] (read-out: dTm 8); 0.5 °C in assay [5] (read-out: dTm 8); 1.9 °C in assay [6] (read-out: dTm 8). For the same compound, the ΔTm at 10 µM in assay [7] (read-out: dTm 8) was 0.6 °C.
On to `CNc1ncc2cc(-c3cc(Br)ccc3Br)c(=O)n(CCCCN)c2n1` [compound 11, 8-(4-Aminobutyl)-6-(2,5-dibromophenyl)-2-(methylamino)pyrido[2,3-d]pyrimidin-7(8H)-one], for which the ΔTm at 10 µM was determined as 4.2 °C in assay [1] (read-out: dTm 11); 0.2 °C in assay [2] (read-out: dTm 11); 0.1 °C in assay [3] (read-out: dTm 11); 4.3 °C in assay [4] (read-out: dTm 11); 0.6 °C in assay [5] (read-out: dTm 11); 1.9 °C in assay [6] (read-out: dTm 11). In addition, the ΔTm at 10 µM in assay [7] (read-out: dTm 11) came to 0.4 °C.
Regarding `CNc1ncc2cc(-c3cc(F)c(-c4cccc(C)n4)cc3F)c(=O)n(CCCCN)c2n1` [compound 12, 8-(4-Aminobutyl)-6-(2,5-difluoro-4-(6-methylpyridin-2-yl)phenyl)-2-(methylamino)pyrido[2,3-d]pyrimidin-7(8H)-one], the ΔTm at 10 µM was 6.1 °C in assay [1] (read-out: dTm 12); -0.9 °C in assay [2] (read-out: dTm 12); 2.9 °C in assay [3] (read-out: dTm 12); 1.6 °C in assay [4] (read-out: dTm 12); 6.3 °C in assay [5] (read-out: dTm 12); -2.4 °C in assay [6] (read-out: dTm 12). The ΔTm at 10 µM in assay [7] (read-out: dTm 12) was -0.1 °C.
With `CNc1ncc2cc(-c3cc(Cl)ccc3Br)c(=O)n(CCCCN)c2n1` [compound 10, 8-(4-Aminobutyl)-6-(2-bromo-5-chlorophenyl)-2-(methylamino)pyrido[2,3-d]pyrimidin-7(8H)-one], the ΔTm at 10 µM in assay [1] (read-out: dTm 10) was 4.3 °C; in assay [2] (read-out: dTm 10), 0.1 °C; in assay [3] (read-out: dTm 10) it was 0.1 °C; in assay [4] (read-out: dTm 10), 5.1 °C; in assay [5] (read-out: dTm 10) it was 0.4 °C; in assay [6] (read-out: dTm 10), 2 °C. Further, the ΔTm at 10 µM in assay [7] (read-out: dTm 10) came to 0.4 °C.
